Laboratory results reported in patent US8765820B2, “Tranylcypromine derivatives as inhibitors of histone demethylases LSD1 and/or LSD2” (Universita Degli Studi di Roma “La Sapienza”, priority 2010, dated 2014).
Counter-ions that a name gives are not always drawn. Like-named read-outs stand apart in the source and are kept apart here.

Assays:
Human recombinant MAO A = Human recombinant MAO A (Homo sapiens (Human), UniProt P21397); test: MAO A inhibition, peroxidase-coupled assay with kynuramine as substrate; type: biochemical
Chain of Human recombinant MAO A (P21397 whole entry, looked up): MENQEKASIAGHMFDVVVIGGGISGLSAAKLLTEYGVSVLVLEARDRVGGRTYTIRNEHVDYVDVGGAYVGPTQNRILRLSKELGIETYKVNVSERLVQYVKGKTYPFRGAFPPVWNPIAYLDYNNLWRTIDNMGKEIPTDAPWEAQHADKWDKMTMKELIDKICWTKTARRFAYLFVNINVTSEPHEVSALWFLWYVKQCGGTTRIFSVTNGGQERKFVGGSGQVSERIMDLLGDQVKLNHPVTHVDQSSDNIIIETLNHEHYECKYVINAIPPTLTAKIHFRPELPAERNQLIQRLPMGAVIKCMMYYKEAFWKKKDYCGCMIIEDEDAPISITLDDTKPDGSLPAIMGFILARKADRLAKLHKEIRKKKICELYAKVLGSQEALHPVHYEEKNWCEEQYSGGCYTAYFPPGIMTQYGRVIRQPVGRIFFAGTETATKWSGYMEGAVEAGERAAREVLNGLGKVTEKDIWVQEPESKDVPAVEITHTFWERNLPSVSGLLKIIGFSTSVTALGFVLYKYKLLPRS

Mouse recombinant LSD2 = Mouse recombinant LSD2 (Mus musculus (Mouse), UniProt Q8CIG3); test: LSD2 inhibition, peroxidase-coupled assay with histone H3 peptide di-methylated at Lys4; type: biochemical; settings: for Ki: pH 8.0, steady-state competition experiments, errors within 30%
Chain of Mouse recombinant LSD2 (Q8CIG3 whole entry): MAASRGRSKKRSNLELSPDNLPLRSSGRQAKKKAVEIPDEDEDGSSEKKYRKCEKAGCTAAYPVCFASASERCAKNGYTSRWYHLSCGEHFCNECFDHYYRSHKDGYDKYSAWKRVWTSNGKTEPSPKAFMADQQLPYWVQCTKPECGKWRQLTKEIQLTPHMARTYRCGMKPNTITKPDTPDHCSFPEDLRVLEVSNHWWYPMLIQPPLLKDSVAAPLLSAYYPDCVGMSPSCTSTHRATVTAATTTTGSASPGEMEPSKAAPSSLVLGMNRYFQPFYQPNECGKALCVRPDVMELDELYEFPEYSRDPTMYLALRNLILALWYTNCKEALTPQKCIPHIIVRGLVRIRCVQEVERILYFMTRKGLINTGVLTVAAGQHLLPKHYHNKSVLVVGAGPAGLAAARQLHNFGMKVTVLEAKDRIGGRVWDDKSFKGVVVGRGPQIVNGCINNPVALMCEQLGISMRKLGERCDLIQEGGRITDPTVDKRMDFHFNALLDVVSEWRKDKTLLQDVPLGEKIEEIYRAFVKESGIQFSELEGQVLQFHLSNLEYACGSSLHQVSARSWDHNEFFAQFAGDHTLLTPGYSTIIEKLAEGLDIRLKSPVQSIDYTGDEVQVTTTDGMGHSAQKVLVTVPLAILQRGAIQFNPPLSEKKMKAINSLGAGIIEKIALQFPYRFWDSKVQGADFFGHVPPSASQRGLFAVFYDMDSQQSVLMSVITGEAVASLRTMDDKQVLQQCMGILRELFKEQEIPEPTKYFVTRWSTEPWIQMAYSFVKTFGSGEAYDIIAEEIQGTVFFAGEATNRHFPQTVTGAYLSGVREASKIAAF

Human recombinant MAO B = Human recombinant MAO B (Homo sapiens (Human), UniProt P27338); test: MAO B inhibition, peroxidase-coupled assay with benzylamine as substrate; type: biochemical; settings: for MAO B Ki: 25° C., pH 7.5, no inhibition = no detectable inhibition at inhibitor saturated solutions
Chain of Human recombinant MAO B (P27338 whole entry): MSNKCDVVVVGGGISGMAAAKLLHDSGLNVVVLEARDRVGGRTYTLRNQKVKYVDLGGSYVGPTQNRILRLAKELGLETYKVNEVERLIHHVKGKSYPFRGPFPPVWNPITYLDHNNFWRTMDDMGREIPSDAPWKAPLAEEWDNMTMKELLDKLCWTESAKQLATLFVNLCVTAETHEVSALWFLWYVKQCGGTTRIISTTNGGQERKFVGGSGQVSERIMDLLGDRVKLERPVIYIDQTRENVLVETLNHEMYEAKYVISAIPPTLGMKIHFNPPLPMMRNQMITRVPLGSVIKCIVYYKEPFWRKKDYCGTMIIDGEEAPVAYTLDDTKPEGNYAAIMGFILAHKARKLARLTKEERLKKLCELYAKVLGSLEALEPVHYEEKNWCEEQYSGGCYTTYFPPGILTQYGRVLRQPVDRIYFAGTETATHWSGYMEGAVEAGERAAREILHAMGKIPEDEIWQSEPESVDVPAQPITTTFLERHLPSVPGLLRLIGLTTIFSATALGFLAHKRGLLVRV

[1] = biological target: Human recombinant LSD1/CoREST (Homo sapiens (Human), UniProt O60341); test: LSD1 inhibition, peroxidase-coupled assay with histone H3 peptide mono-methylated at Lys4; type: biochemical
NB4 cells = settings: RA 10 nM in the absence of 6e

Compound	MAO A inhibition (Human recombinant MAO A)	LSD2 inhibition (Mouse recombinant LSD2)	MAO B inhibition (Human recombinant MAO B)	further results
CN(C(=O)C(Cc1ccccc1)NC(=O)OCc1ccccc1)c1ccc(C2CC2N)cc1.Cl (stereo not drawn) [Compound 12, trans benzyl 1-((4-(2-aminocyclopropyl)phenyl)(methyl)amino)-1-oxo-3-phenylpropan-2-ylcarbamate]	+	+	−	MAO B Ki (Human recombinant MAO B): no inhibition^d
CC(C)C(NC(=O)OCc1ccccc1)C(=O)Nc1ccc([C@@H]2C[C@H]2N)cc1 (relative stereo) [Compound 6a, trans benzyl 1-(4-(2-aminocyclopropyl)phenylamino)-3-methyl-1-oxobutan-2-ylcarbamate]	+	+	−	LSD1 inhibition [1]: +
N[C@@H]1C[C@H]1c1ccc(NC(=O)OCc2ccccc2)cc1 (relative stereo) [Compound 5a, trans benzyl 4-(2-aminocyclopropyl)phenylcarbamate]				Ki (Mouse recombinant LSD2; 25° C.): 20 µM
Cl.NC1CC1c1ccc(NC(=O)C(Cc2ccccc2)NC(=O)OCc2ccc(Br)cc2)cc1 (stereo not drawn) [Compound 7, trans 4-bromobenzyl 1-(4-(2-aminocyclopropyl)phenylamino)-1-oxo-3-phenylpropan-2-ylcarbamate]			−	MAO B Ki (Human recombinant MAO B): no inhibition^d; melting point: 220 to 222 °C
N[C@@H]1C[C@H]1c1ccc(NC(=O)c2ccccc2)cc1 (relative stereo) [Compound 5b, trans N-(4-(2-aminocyclopropyl)phenyl)benzamide]				Ki (Mouse recombinant LSD2; 25° C.): 61 µM
CC(C)CC(NC(=O)OCc1ccccc1)C(=O)Nc1ccc([C@@H]2C[C@H]2N)cc1 (relative stereo) [Compound 6b, trans benzyl 1-(4-(2-aminocyclopropyl)phenylamino)-4-methyl-1-oxopentan-2-ylcarbamate]	+	+	−	LSD1 inhibition [1]: +
CC1=C(/C=C/C(C)=C/C=C/C(C)=C/C(=O)O)C(C)(C)CCC1 [RA, retinoic acid]				differentiating effect of RA alone (NB4 cells): almost totally ineffective
Cl.NC1CC1c1ccc(NC(=O)C(Cc2ccccc2)NC(=O)NCc2ccccc2)cc1 (stereo not drawn) [Compound 16, trans N-(4-(2-aminocyclopropyl)phenyl)-2-(3-benzylureido)-3-phenylpropanamide]	+	+	+	melting point: 153 to 155 °C
CC(C)C(NC(=O)OCc1ccccc1)C(=O)Nc1ccc([C@@H]2C[C@H]2N)cc1 (relative stereo) (as salt: hydrochloride) [Compound 6a, trans benzyl 1-(4-(2-aminocyclopropyl)phenylamino)-3-methyl-1-oxobutan-2-ylcarbamate]				melting point: 168 to 170 °C
CC(C)CC(NC(=O)OCc1ccccc1)C(=O)Nc1ccc([C@@H]2C[C@H]2N)cc1 (relative stereo) (as salt: hydrochloride) [Compound 6b, trans benzyl 1-(4-(2-aminocyclopropyl)phenylamino)-4-methyl-1-oxopentan-2-ylcarbamate]				melting point: 158 to 160 °C
Cl.NC1CC1c1ccc(NC(=O)C(Cc2ccccc2)NC(=O)OCc2ccccc2)cc1 (stereo not drawn) [Compound 8, cis benzyl 1-(4-(2-aminocyclopropyl)phenylamino)-1-oxo-3-phenylpropan-2-ylcarbamate]			−	MAO B Ki (Human recombinant MAO B): no inhibition^d
trans benzyl 1-(4-(2- aminocycylpropyl)phenylamino)-3- (napththalen-1-yl)-1-oxopropan-2- ylcarbamate [Compound 6j]	+	+	−	LSD1 inhibition [1]: +
N[C@@H]1C[C@H]1c1ccc(NC(=O)C(Cc2ccccc2)NC(=O)OCc2ccccc2)cc1 (relative stereo) [Compound 6e, trans benzyl 1-(4-(2-aminocyclopropyl)phenylamino)-1-oxo-3-phenylpropan-2-ylcarbamate]				MAO B Ki (Human recombinant MAO B): no inhibition^d
Cl.N[C@@H]1C[C@H]1c1ccc(NC(=O)CCCCCCC(=O)NO)cc1 (relative stereo) [Compound 9, trans N^1-(4-(2-aminocyclopropyl)phenyl)-N^8-hydroxyoctanediamide]				LSD2 inhibition (Mouse recombinant LSD2; 25° C., 50 mM Hepes/NaOH pH 8.0, max inhibitor concentration 1 mM or saturated solution): +; LSD1 inhibition ([1]; 25° C., 50 mM Hepes/NaOH pH 7.5, max inhibitor concentration 1 mM or saturated solution): +; MAO B inhibition (Human recombinant MAO B; 50 mM Hepes/NaOH pH 7.5, 0.5% reduced Triton X-100, max inhibitor concentration 1 mM or saturated solution): +
